Data as given in US20160075653A1, “NEMATICIDAL N-(PHENYLCYCLOALKYL)CARBOXAMIDES AND N-(PHENYLCYCLOALKYL)THIOCARBOXAMIDES” (BAYER CROPSCIENCE AKTIENGESELLSCHAFT, priority 2013, published 2016).

assay: Measurement of log P values by HPLC on reversed phase columns (methods [a] pH 2.3, [b] pH 2.7, [c] pH 7.8); assay type: physicochemical; conditions: HPLC on reversed phase columns, method [b], pH 2.7
Summary of the method: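 Retention times were converted to log P by linear interpolation between linear alkan-2-one standards (3 to 16 carbons) of known log P. Eluents, each with 10% to 95% acetonitrile gradient: phosphoric acid 0.1% at pH 2.3 [a]; formic acid 0.1% at pH 2.7, LC-MS [b]; ammonium hydrogen carbonate 0.001 molar at pH 7.8, LC-MS [c].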

| Structure (SMILES) | logP |
| --- | --- |
| Cn1cc(C(=O)NC2CC2c2ccccc2)c(C(F)(F)F)n1 (stereo not shown) [Example 4] | 2.34^[b] |
| Cc1nc(C(F)(F)F)c(C(=O)NC2CC2c2ccccc2)s1 (stereo not shown) [Example 8] | 2.66^[b] |
| Cc1nn(C)c(C)c1C(=O)NC1CC1c1ccc(F)cc1 (stereo not shown) [Example 15] | 2.84^[b] |
| Cc1nn(C)c(F)c1C(=O)NC1CC1c1ccc(F)cc1 (stereo not shown) [Example 18] | 3.01^[b] |
| Cc1nn(C)c(C)c1C(=O)NC1CC1c1ccc(Br)cc1 (stereo not shown) [Example 21] | 3.26^[b] |
| Cc1nn(C)cc1C(=O)NC1CC1c1ccc(Br)cc1 (stereo not shown) [Example 23] | 3.20^[b] |
| Cc1nc(C(F)(F)F)c(C(=O)NC2CC2c2ccc(Cl)cc2)s1 (stereo not shown) [Example 28] | 4.35^[b] |
| O=C(NC1CC1c1ccc(Cl)cc1)c1cccnc1Cl (stereo not shown) [Example 34] | 2.43^[b] |
| O=C(NC1CC1c1ccc(F)cc1)c1cnc(Cl)cc1Cl (stereo not shown) [Example 36] | 2.70^[b] |

Second part, the molecule after the results:

| logP | Structure (SMILES) |
| --- | --- |
| 2.00^[b] | Cc1nn(C)c(F)c1C(=O)NC1CC1c1ccccc1 (stereo not shown) [Example 5] |
| 1.70^[b] | Cc1nn(C)cc1C(=O)NC1CC1c1ccccc1 (stereo not shown) [Example 6] |
| 2.12^[b] | Cc1nn(C)c(Cl)c1C(=O)NC1CC1c1ccccc1 (stereo not shown) [Example 9] |
| 3.04^[b] | Cc1nn(C)c(F)c1C(=O)NC1CC1c1ccc(Cl)cc1 (stereo not shown) [Example 12] |
| 2.89^[b] | Cc1nn(C)c(C)c1C(=O)NC1CC1c1ccc(Cl)cc1 (stereo not shown) [Example 13] |
| 2.22^[b] | Cc1nn(C)c(Cl)c1C(=O)NC1CC1c1ccc(Cl)cc1 (stereo not shown) [Example 14] |
| 2.13^[b] | Cc1nn(C)cc1C(=O)NC1CC1c1ccc(F)cc1 (stereo not shown) [Example 16] |
| 2.63^[b] | Cc1nn(C)cc1C(=O)NC1CC1c1ccc(Cl)cc1 (stereo not shown) [Example 19] |
| 3.23^[b] | Cn1cc(C(=O)NC2CC2c2ccc(Br)cc2)c(C(F)(F)F)n1 (stereo not shown) [Example 25] |
| 3.87^[b] | Cc1nc(C(F)(F)F)c(C(=O)NC2CC2c2ccc(F)cc2)s1 (stereo not shown) [Example 26] |
| 3.53^[b] | O=C(NC1CC1c1ccc(Cl)cc1)c1ccc(Cl)nc1 (stereo not shown) [Example 31] |
| 2.34^[b] | O=C(NC1CC1c1ccc(Br)cc1)c1cccnc1Cl (stereo not shown) [Example 35] |
| 1.30^[b] | O=C(NC1CC1c1ccccc1)c1ccncc1 (stereo not shown) [Example 39] |
| 2.79^[b] | O=C(NC1CC1c1ccccc1)c1ccccc1C(F)(F)F (stereo not shown) [Example 40] |
| 3.19^[b] | O=C(NC1CC1c1ccccc1Cl)c1ccccc1Br (stereo not shown) [Example 48] |

same assay, conditions: HPLC on reversed phase columns, method [c], pH 7.8

| Structure (SMILES) | logP |
| --- | --- |
| O=C(NC1CC1c1ccc(Cl)cc1)c1cccnc1Cl (stereo not shown) [Example 34] | 2.39^[c]; |

same assay, conditions: HPLC reversed phase, method [b] (pH 2.7)

| Structure (SMILES) | logP |
| --- | --- |
| O=C(NC1CC1c1ccc(Cl)cc1)c1ccccc1I (stereo not shown) [Compound 273] | 2.94^[b] |
| O=C(NC1CC1c1ccc(Cl)cc1)c1cccnc1Cl (stereo not shown) [Compound 274] | 2.14^[b] |
| Cc1ccccc1C(=O)NC1CC1c1ccc(Cl)cc1 (stereo not shown) [Compound 276] | 2.76^[b] |
| O=C(NC1CCCC1c1c(F)cccc1F)c1ccccc1C(F)(F)F (stereo not shown) [Compound 323] | 3.43^[b] |
| O=C(NC1CC1c1ccc(Cl)cc1)c1ccsc1I (stereo not shown) [Compound 460] | 2.94^[b] |
| O=C(NC1CCC1c1ccc(F)cc1C(F)(F)F)c1ncccc1Cl (stereo not shown) [Compound 478] | 3.39^[b] |

same assay, conditions: HPLC reversed phase, method [c] pH 7.8

| Structure (SMILES) | logP |
| --- | --- |
| O=C(NC1CC1c1ccc(Cl)cc1)c1ccccc1I (stereo not shown) [Compound 273] | 2.88^[c]; |
| O=C(NC1CC1c1ccc(Cl)cc1)c1cccnc1Cl (stereo not shown) [Compound 274] | 2.10^[c]; |
| Cc1ccccc1C(=O)NC1CC1c1ccc(Cl)cc1 (stereo not shown) [Compound 276] | 2.70^[c]; |
| O=C(NC1CC1c1ccc(Cl)cc1)c1ccsc1I (stereo not shown) [Compound 460] | 2.93^[c]; |

same assay, conditions: HPLC-MS, method letter not given

| log P | Structure (SMILES) |
| --- | --- |
| 3.26 | Cn1cc(C(=O)NC2CCC2c2ccc(Cl)cc2Cl)c(C(F)F)n1 (single isomer, unassigned) [Preparation Example 2 trans-Isomer, trans-N-[2-(2,4-dichlorophenyl)cyclobutyl]-3-(difluoromethyl)-1-methyl-1H-pyrazole-4-carboxamide] |

same assay, conditions: method [b], HPLC reversed phase, pH 2.7

| Structure (SMILES) | logP |
| --- | --- |
| O=C(NC1CC1c1ccc(Cl)cc1)c1sccc1Cl (stereo not shown) [Compound 203] | 3.51^[b] |
| Cn1cc(C(=O)N(C2CC2)C2CCCCC2c2ccccc2)c(C(F)(F)F)c1 (stereo not shown) [Example 140] | 3.90^[b] |
| Cc1nc(C(F)F)c(C(=O)N(C2CC2)C2CCCCC2c2ccccc2)s1 (stereo not shown) [Example 141] | 4.18^[b] |
| Cn1cc(C(=O)N(C2CC2)C2CCCCC2c2ccccc2)c(C(F)F)n1 (stereo not shown) [Example 143] | 3.55^[b] |
| FC(F)(F)c1ccccc1C(=S)NC1CC1c1ccccc1 (stereo not shown) [Example 148] | 3.69^[b] |
| Fc1ccc(C2CCCC2NC(=S)c2sccc2C(F)(F)F)cc1F (stereo not shown) [Example 149] | 4.59^[b] |
| Cn1cc(C(=O)N(C2CC2)C2CCCC2c2ccc(Cl)cc2Cl)c(C(F)F)n1 (stereo not shown) [Example 155] | 4.23^[b] |
| Cc1nn(C)c(F)c1C(=O)N(C1CC1)C1CCCC1c1ccc(Cl)cc1Cl (stereo not shown) [Example 159] | 4.18^[b] |
| CCc1nn(C)c(F)c1C(=O)N(C1CC1)C1CCCC1c1ccc(Cl)cc1Cl (stereo not shown) [Example 160] | 4.65^[b] |
| Cc1cc(C(=O)N(C2CC2)C2CCCCC2c2ccc(Cl)cc2Cl)c(C)o1 (stereo not shown) [Example 163] | 5.85^[b] |
| Cc1nn(C)c(F)c1C(=O)N(C1CC1)C1CCCC1c1ccccc1Cl (stereo not shown) [Example 164] | 3.71^[b] |
| Cc1nn(C)c(F)c1C(=O)N(C1CC1)C1CCCCC1c1ccc(Cl)cc1Cl (stereo not shown) [Example 165] | 4.59^[b] |
| Cn1nc(C(F)F)c(C(=O)N(C2CC2)C2CCCCC2c2ccc(Cl)cc2Cl)c1F (stereo not shown) [Example 168] | 5.05^[b] |
| Cn1nc(C(F)F)c(C(=O)N(C2CC2)C2CCCCC2c2ccccc2Cl)c1F (stereo not shown) [Example 169] | 4.49^[b] |
| Cc1nc(C(F)F)c(C(=O)N(C2CC2)C2CCCCC2c2ccc(Cl)cc2Cl)s1 (stereo not shown) [Example 170] | 5.25^[b] |
| Cc1nc(C(F)F)c(C(=O)N(C2CC2)C2CCCCC2c2ccccc2Cl)s1 (stereo not shown) [Example 171] | 4.67^[b] |
| CCc1nn(C)c(F)c1C(=O)N(C1CC1)C1CCCC1c1ccccc1Cl (stereo not shown) [Example 172] | 4.21^[b] |
| Cc1nc(C(F)F)c(C(=O)N(C2CC2)C2CCCC2c2ccccc2Cl)s1 (stereo not shown) [Example 174] | 4.51^[b] |

Continued, values first:

| logP | Structure (SMILES) |
| --- | --- |
| 2.96^[b] | N#Cc1ccccc1C(=O)NC1CCCC1c1ccc(F)c(F)c1 (stereo not shown) [Example 137] |
| 3.60^[b] | Cn1cc(C(=O)N(C2CC2)C2CCCCC2c2ccccc2)c(C(F)F)n1 (stereo not shown) [Example 138] |
| 3.53^[b] | Cc1nn(C)c(F)c1C(=O)N(C1CC1)C1CCCCC1c1ccccc1 (stereo not shown) [Example 139] |
| 3.96^[b] | Cn1cc(C(=O)N(C2CC2)C2CCCCC2c2ccccc2)c(C(F)(F)F)n1 (stereo not shown) [Example 142] |
| 3.83^[b] | CCc1nn(C)c(F)c1C(=O)N(C1CC1)C1CCCCC1c1ccccc1 (stereo not shown) [Example 144] |
| 3.60^[b] | Cn1cc(C(=O)N(C2CC2)C2CCCCC2c2ccccc2)c(I)n1 (stereo not shown) [Example 145] |
| 3.13^[b] | Cc1nn(C)c(C)c1C(=O)N(C1CC1)C1CCCCC1c1ccccc1 (stereo not shown) [Example 146] |
| 4.69^[b] | Cc1nc(C(F)(F)F)c(C(=O)N(C2CC2)C2CCCCC2c2ccccc2)s1 (stereo not shown) [Example 147] |
| 4.21^[b] | Fc1ccc(C2CCCC2NC(=S)C2=C(C(F)(F)F)OCCS2)cc1F (stereo not shown) [Example 150] |
| 2.30^[b] | Cn1cc(C(=O)NC2CC2c2ccc(Cl)cc2)c(C(F)F)n1 (stereo not shown) [Example 151] |
| 3.94^[b] | Cc1nn(C)c(F)c1C(=O)N(C1CC1)C1CCCCC1c1ccccc1Cl (stereo not shown) [Example 154] |
| 3.85^[b] | Cn1cc(C(=O)N(C2CC2)C2CCCC2c2ccccc2Cl)c(C(F)F)n1 (stereo not shown) [Example 156] |
| 4.59^[b] | Cn1cc(C(=O)N(C2CC2)C2CCCCC2c2ccc(Cl)cc2Cl)c(C(F)F)n1 (stereo not shown) [Example 157] |
| 4.03^[b] | Cn1cc(C(=O)N(C2CC2)C2CCCCC2c2ccccc2Cl)c(C(F)F)n1 (stereo not shown) [Example 158] |
| 5.08^[b] | CCc1nn(C)c(F)c1C(=O)N(C1CC1)C1CCCCC1c1ccc(Cl)cc1Cl (stereo not shown) [Example 161] |
| 4.39^[b] | CCc1nn(C)c(F)c1C(=O)N(C1CC1)C1CCCCC1c1ccccc1Cl (stereo not shown) [Example 162] |
| 4.67^[b] | Cn1nc(C(F)F)c(C(=O)N(C2CC2)C2CCCC2c2ccc(Cl)cc2Cl)c1F (stereo not shown) [Example 166] |
| 4.31^[b] | Cn1nc(C(F)F)c(C(=O)N(C2CC2)C2CCCC2c2ccccc2Cl)c1F (stereo not shown) [Example 167] |
| 4.85^[b] | Cc1nc(C(F)F)c(C(=O)N(C2CC2)C2CCCC2c2ccc(Cl)cc2Cl)s1 (stereo not shown) [Example 173] |
| 5.39^[b] | Cc1cc(C(=O)N(C2CC2)C2CCCC2c2ccc(Cl)cc2Cl)c(C)o1 (stereo not shown) [Example 175] |
| 4.95^[b] | Cc1cc(C(=O)N(C2CC2)C2CCCC2c2ccccc2Cl)c(C)o1 (stereo not shown) [Example 176] |
| 5.17^[b] | Cc1cc(C(=O)N(C2CC2)C2CCCCC2c2ccccc2Cl)c(C)o1 (stereo not shown) [Example 177] |

same assay, conditions: method [c], HPLC reversed phase, pH 7.8

| Structure (SMILES) | logP |
| --- | --- |
| O=C(NC1CC1c1ccc(Cl)cc1)c1sccc1Cl (stereo not shown) [Compound 203] | 3.45^[c]; |

same assay, conditions: reversed phase HPLC columns, HPLC-MS, method letter not given; read-out: log P

| chromatographic logP | Structure (SMILES) |
| --- | --- |
| 2.95 | Cn1cc(C(=O)NC2CCC2c2ccc(Cl)cc2Cl)c(C(F)F)n1 (single isomer, unassigned) [Preparation Example 2 cis-Isomer, cis-N-[2-(2,4-dichlorophenyl)cyclobutyl]-3-(difluoromethyl)-1-methyl-1H-pyrazole-4-carboxamide] |
| 3.3 | O=C(N[C@H]1CCC1c1ccccc1C(F)(F)F)c1ccccc1Cl (stereo in doubt) [Preparation Example 4, cis-2-chloro-N-{2-[2-(trifluoromethyl)phenyl]cyclobutyl}benzamide] |
| 3.44 | O=C(N[C@H]1CCC1c1ccccc1C(F)(F)F)c1ccccc1I (stereo in doubt) [Preparation Example 5, cis-2-iodo-N-{2-[2-(trifluoromethyl)phenyl]cyclobutyl}benzamide] |
| 3.06 | O=C(NC1CCC1c1ccccc1Cl)c1ncccc1Cl (stereo not drawn) [Compound 238, trans-3-chloro-N-[2-(2-chlorophenyl)cyclobutyl]pyridine-2-carboxamide] |

same assay, conditions: reversed phase HPLC columns, pH 2.7, method [b], HPLC reversed phase, pH 2.7; read-out: logP

| chromatographic logP | Structure (SMILES) |
| --- | --- |
| 3.06 | O=C(NC1CCC1c1ccccc1Cl)c1ncccc1Cl (stereo not drawn) [Compound 238, trans-3-chloro-N-[2-(2-chlorophenyl)cyclobutyl]pyridine-2-carboxamide] |
